Assay results published in the supplement of paper PMC11061612.

Tests used:
Assay in all cases: combination Emax (second highest fraction inhibited in the dose matrix, 72 h); higher = more inhibition; extreme values may be limits of the assay
[1] = test system: DB (B-Cell Non-Hodgkin's Lymphoma)
Outline: (§1)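 Cell lines grown in DMEM/F12 or RPMI with 10% FBS were plated in 1536-well plates and held 24 hours at 37°C, 5% CO2 before 72 hours of exposure to two-drug dose matrices, with DMSO typically at 0.2%. CellTiter-Glo 2.0 luminescence gave viability, which was converted to inhibition. Vehicle wells were set to 0 and blank wells to 1. Combination Emax is the second-highest inhibition in the matrix, and Bliss excess is the observed combination effect minus the expected EA + EB − EA·EB, where EA and EB are the single-agent effects.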

[2] = test system: DOV13 (Ovarian Carcinoma)
Outline: as §1

ES7 (Ewing's Sarcoma) = test system: ES7 (Ewing's Sarcoma)
Outline: as §1

[3] = test system: G-292-Clone-A141B1 (Osteosarcoma)
Outline: as §1

[4] = test system: IHH-4 (Thyroid Gland Carcinoma)
Outline: as §1

[5] = test system: KARPAS-1106P (B-Cell Non-Hodgkin's Lymphoma)
Outline: as §1

[6] = test system: KARPAS-620 (Plasma Cell Myeloma)
Outline: as §1

[7] = test system: KATOIII (Gastric Carcinoma)
Outline: as §1

[8] = test system: MDA-MB-157 (Breast Carcinoma)
Outline: as §1

[9] = test system: MDA-MB-231 (Breast Carcinoma)
Outline: as §1

[10] = test system: MFH-ino (Other Solid Carcinomas)
Outline: as §1

[11] = test system: NCI-H1299 (Non-Small Cell Lung Carcinoma)
Outline: as §1

[12] = test system: NCI-H211 (Small Cell Lung Carcinoma)
Outline: as §1

NCI-H2595 (Mesothelioma) = test system: NCI-H2595 (Mesothelioma)
Outline: as §1

[13] = test system: OCI-AML2 (Acute Myeloid Leukemia)
Outline: as §1

SK-N-FI (Neuroblastoma) = test system: SK-N-FI (Neuroblastoma)
Outline: as §1

SN12C (Kidney Carcinoma) = test system: SN12C (Kidney Carcinoma)
Outline: as §1

[14] = test system: SW1088 (Low Grade Glioma)
Outline: as §1

[15] = test system: SW1783 (Low Grade Glioma)
Outline: as §1

[16] = test system: U-266 (Plasma Cell Myeloma)
Outline: as §1

## C[C@@H]1COCCN1c1cc(C2([S@](C)(=N)=O)CC2)nc(-c2ccnc3[nH]ccc23)n1 [AZD6738] + C1CC(C1)(C(=O)[O-])C(=O)[O-].N.N.[Pt+2] [Carboplatin] (first compound max 10 µM, 7x7, partner max 10 µM)
[1]
  combination Emax: 0.435
[2]
  combination Emax: 0.818
ES7 (Ewing's Sarcoma)
  combination Emax: 0.777
[3]
  combination Emax: 0.328
[4]
  combination Emax: 0.773
[5]
  combination Emax: 0.658
[6]
  combination Emax: 0.399
[7]
  combination Emax: 0.424
[8]
  combination Emax: 0.889
[9]
  combination Emax: 0.576
[10]
  combination Emax: 0.468
[11]
  combination Emax: 0.508
[12]
  combination Emax: 0.61
NCI-H2595 (Mesothelioma)
  combination Emax: 0.275
[13]
  combination Emax: 0.951
SK-N-FI (Neuroblastoma)
  combination Emax: 0.601
SN12C (Kidney Carcinoma)
  combination Emax: 0.222
[14]
  combination Emax: 0.602
[15]
  combination Emax: 0.447
[16]
  combination Emax: 0.316

## O=C(c1cc(Cc2n[nH]c(=O)c3ccccc23)ccc1F)N1CCN(C(=O)C2CC2)CC1 [Olaparib] + CN(CC[C@H](CSC1=CC=CC=C1)NC2=C(C=C(C=C2)S(=O)(=O)NC(=O)C3=CC=C(C=C3)N4CCC(CC4)[C@H](C5=CC=CC=C5C6=CC=C(C=C6)Cl)O)S(=O)(=O)C(F)(F)F)CCO [AZD4320] (first compound max 10 µM, 7x7, partner max 1 µM)
[1]
  combination Emax: 0.923
[2]
  combination Emax: 0.86
ES7 (Ewing's Sarcoma)
  combination Emax: 0.969
[3]
  combination Emax: 0.419
[4]
  combination Emax: 0.206
[5]
  combination Emax: 0.498
[6]
  combination Emax: 1
[7]
  combination Emax: 0.37
[8]
  combination Emax: 0.216
[9]
  combination Emax: 0.668
[10]
  combination Emax: 0.108
[11]
  combination Emax: 0.114
[12]
  combination Emax: 1
NCI-H2595 (Mesothelioma)
  combination Emax: 0.228
[13]
  combination Emax: 1
SK-N-FI (Neuroblastoma)
  combination Emax: 0.144
SN12C (Kidney Carcinoma)
  combination Emax: 0.18
[14]
  combination Emax: 0.147
[15]
  combination Emax: 0.289
[16]
  combination Emax: 0.631

## Cc1c2c(nn1C)CSCc1cc(n(C)n1)CSc1cc(c3ccccc3c1)OCCCc1c(C(=O)O)n(C)c3c-2c(Cl)ccc13 [AZD5991] + CS(=O)(=O)CCNCc1ccc(-c2ccc3ncnc(Nc4ccc(OCc5cccc(F)c5)c(Cl)c4)c3c2)o1 [Lapatinib] (first compound max 1 µM, 7x7, partner max 10 µM)
[1]
  combination Emax: 1
[2]
  combination Emax: 0.185
ES7 (Ewing's Sarcoma)
  combination Emax: 0.737
[3]
  combination Emax: 0.264
[4]
  combination Emax: 0.278
[5]
  combination Emax: 0.893
[6]
  combination Emax: 1
[7]
  combination Emax: 0.415
[8]
  combination Emax: 0.883
[9]
  combination Emax: 0.263
[10]
  combination Emax: 0.234
[11]
  combination Emax: 0.301
[12]
  combination Emax: 0.979
NCI-H2595 (Mesothelioma)
  combination Emax: 0.361
[13]
  combination Emax: 0.978
SK-N-FI (Neuroblastoma)
  combination Emax: 0.562
SN12C (Kidney Carcinoma)
  combination Emax: 0.249
[14]
  combination Emax: 0.36
[15]
  combination Emax: 0.165
[16]
  combination Emax: 0.845

## N#Cc1cnc(Nc2cc(NC[C@H]3CNCCO3)c(C(F)(F)F)cn2)cn1 [SRA737] + C=CCn1c(=O)c2cnc(Nc3ccc(N4CCN(C)CC4)cc3)nc2n1-c1cccc(C(C)(C)O)n1 [AZD1775] (first compound max 10 µM, partner max 1 µM)
[1]
  combination Emax: 0.87
ES7 (Ewing's Sarcoma)
  combination Emax: 0.829
[3]
  combination Emax: 0.239
[4]
  combination Emax: 0.825
[5]
  combination Emax: 0.913
[6]
  combination Emax: 0.779
[7]
  combination Emax: 0.392
[8]
  combination Emax: 0.955
[9]
  combination Emax: 0.807
[10]
  combination Emax: 0.441
[11]
  combination Emax: 0.674
[12]
  combination Emax: 0.971
NCI-H2595 (Mesothelioma)
  combination Emax: 0.236
[13]
  combination Emax: 1
SK-N-FI (Neuroblastoma)
  combination Emax: 0.722
SN12C (Kidney Carcinoma)
  combination Emax: 0.212
[14]
  combination Emax: 0.77
[15]
  combination Emax: 0.467
[16]
  combination Emax: 0.599

## C=CCn1c(=O)c2cnc(Nc3ccc(N4CCN(C)CC4)cc3)nc2n1-c1cccc(C(C)(C)O)n1 [AZD1775] + Nc1ccn([C@@H]2O[C@H](CO)[C@@H](O)C2(F)F)c(=O)n1 [Gemcitabine] (first compound max 1 µM, partner max 0.3 µM)
[1]
  combination Emax: 0.952
[2]
  combination Emax: 0.952
ES7 (Ewing's Sarcoma)
  combination Emax: 0.983
[3]
  combination Emax: 0.317
[4]
  combination Emax: 1
[5]
  combination Emax: 0.94
[6]
  combination Emax: 0.548
[7]
  combination Emax: 0.506
[8]
  combination Emax: 0.917
[9]
  combination Emax: 0.78
[10]
  combination Emax: 0.68
[11]
  combination Emax: 0.818
[12]
  combination Emax: 0.998
NCI-H2595 (Mesothelioma)
  combination Emax: 0.344
[13]
  combination Emax: 1
SK-N-FI (Neuroblastoma)
  combination Emax: 0.616
SN12C (Kidney Carcinoma)
  combination Emax: 0.576
[14]
  combination Emax: 0.581
[15]
  combination Emax: 0.684
[16]
  combination Emax: 0.765

## CN(CCO)CC[C@H](CSc1ccccc1)Nc1ccc(S(=O)(=O)NC(=O)c2ccc(N3CCC([C@@H](O)c4ccccc4-c4ccc(Cl)cc4)CC3)cc2)cc1S(=O)(=O)C(F)(F)F [AZD4320] + CC(=O)O[C@H]1C(=O)[C@@]2(C)[C@H]([C@H](OC(=O)c3ccccc3)[C@]3(O)C[C@H](OC(=O)[C@H](O)[C@@H](NC(=O)c4ccccc4)c4ccccc4)C(C)=C1C3(C)C)[C@]1(OC(C)=O)CO[C@@H]1C[C@@H]2O [Paclitaxel] (first compound max 1 µM, 7x7, partner max 3 µM)
[1]
  combination Emax: 1
[2]
  combination Emax: 1
ES7 (Ewing's Sarcoma)
  combination Emax: 1
[3]
  combination Emax: 0.891
[4]
  combination Emax: 0.999
[5]
  combination Emax: 0.97
[6]
  combination Emax: 1
[7]
  combination Emax: 0.803
[8]
  combination Emax: 0.86
[9]
  combination Emax: 0.984
[10]
  combination Emax: 0.777
[11]
  combination Emax: 0.892
[12]
  combination Emax: 1
NCI-H2595 (Mesothelioma)
  combination Emax: 0.726
[13]
  combination Emax: 1
SK-N-FI (Neuroblastoma)
  combination Emax: 0.739
SN12C (Kidney Carcinoma)
  combination Emax: 0.823
[14]
  combination Emax: 0.837
[15]
  combination Emax: 0.875
[16]
  combination Emax: 0.966
